Laboratory results: ChEMBL document CHEMBL1201862, “PubChem BioAssay data set” (2004)
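How tested: cells in 96-well plates exposed to compound for 48 hours at five concentrations. GI50: concentration for 50% inhibition of growth.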 The source made the active and inactive calls. Rule as the data show it: active = GI50 up to about 1.1 µM and inactive = higher.

How the values were obtained:
Assay in all cases: inhibition of tumour cell growth, NCI panel, 48 h
UO-31 = tested on: UO-31
SR = tested on: SR
UACC-257 = tested on: UACC-257
RXF 393 = tested on: RXF 393
SN12C = tested on: SN12C
IGROV-1 = tested on: IGROV-1
HCT-116 = tested on: HCT-116
SK-OV-3 = tested on: SK-OV-3
NCI-H23 = tested on: NCI-H23
Malme-3M = tested on: Malme-3M
KM12 = tested on: KM12
RPMI-8226 = tested on: RPMI-8226
SNB-19 = tested on: SNB-19
SK-MEL-2 = tested on: SK-MEL-2
T47D = tested on: T47D
NCI-H460 = tested on: NCI-H460
SF-539 = tested on: SF-539
SF-268 = tested on: SF-268
COLO 205 = tested on: COLO 205
SW-620 = tested on: SW-620

| Compound | GI50 (UO-31) | GI50 (SR) | GI50 (UACC-257) | GI50 (RXF 393) | GI50 (SN12C) | GI50 (IGROV-1) | GI50 (HCT-116) | GI50 (SK-OV-3) | GI50 (NCI-H23) | GI50 (Malme-3M) | GI50 (KM12) | GI50 (RPMI-8226) | GI50 (SNB-19) | GI50 (SK-MEL-2) | GI50 (T47D) | GI50 (NCI-H460) | GI50 (SF-539) | GI50 (SF-268) | GI50 (COLO 205) | GI50 (SW-620) |
| --- | --- | --- | --- | --- | --- | --- | --- | --- | --- | --- | --- | --- | --- | --- | --- | --- | --- | --- | --- | --- |
| CC(=O)NC(Cc1ccccc1)NC(=O)O (stereo not drawn) | > 100 µM (inactive) | > 100 µM (inactive) | > 100 µM (inactive) | > 100 µM (inactive) | > 100 µM (inactive) | > 100 µM (inactive) | > 100 µM (inactive) | > 100 µM (inactive) | > 100 µM (inactive) | > 100 µM (inactive) | > 100 µM (inactive) | > 100 µM (inactive) | > 100 µM (inactive) | > 100 µM (inactive) | > 100 µM (inactive) | > 100 µM (inactive) | > 100 µM (inactive) | > 100 µM (inactive) | > 100 µM (inactive) | > 100 µM (inactive) |
| COc1c2c(cc3c1OCO3)[C@]13C=C[C@H](OC)C[C@H]1N(C2)CC3O (stereo partly drawn) | > 100 µM (inactive) | 18.4 µM (inactive) | > 100 µM (inactive) | > 100 µM (inactive) | > 100 µM (inactive) | > 100 µM (inactive) | > 100 µM (inactive) | > 100 µM (inactive) | > 100 µM (inactive) | > 100 µM (inactive) | > 100 µM (inactive) | > 100 µM (inactive) | > 100 µM (inactive) | > 100 µM (inactive) | > 100 µM (inactive) | > 100 µM (inactive) | > 100 µM (inactive) | > 100 µM (inactive) | > 100 µM (inactive) | > 100 µM (inactive) |
| CC(=O)NC1c2ccccc2C(C)(C)C12CCC1(CC2)OCCO1 (stereo not drawn) | > 100 µM (inactive) | > 100 µM (inactive) | > 100 µM (inactive) | 37.9 µM (inactive) | > 10 µM (inactive) | > 100 µM (inactive) | > 100 µM (inactive) | > 10 µM (inactive) | > 100 µM (inactive) | 98.6 µM (inactive) | > 100 µM (inactive) | > 100 µM (inactive) | > 100 µM (inactive) | > 100 µM (inactive) | > 100 µM (inactive) | > 10 µM (inactive) | > 100 µM (inactive) | > 100 µM (inactive) | > 100 µM (inactive) | > 100 µM (inactive) |
| C=C1CCN2CC[C@@H](OC(=O)/C(C)=C\C)[C@@H]12 | > 100 µM (inactive) | > 100 µM (inactive) | > 100 µM (inactive) | > 100 µM (inactive) | > 100 µM (inactive) | > 100 µM (inactive) | > 100 µM (inactive) | > 100 µM (inactive) | > 100 µM (inactive) | > 100 µM (inactive) | > 100 µM (inactive) | > 100 µM (inactive) | > 100 µM (inactive) | > 100 µM (inactive) | > 100 µM (inactive) | > 100 µM (inactive) | > 100 µM (inactive) | > 100 µM (inactive) | > 100 µM (inactive) | > 100 µM (inactive) |
| c1ccc(C(c2cccc3c2ccc2ccccc23)C(c2ccccc2)c2cccc3c2ccc2ccccc23)cc1 (stereo not drawn) | > 100 µM (inactive) | > 100 µM (inactive) | > 100 µM (inactive) | > 100 µM (inactive) | > 100 µM (inactive) | > 100 µM (inactive) | > 100 µM (inactive) | > 100 µM (inactive) | > 100 µM (inactive) | > 100 µM (inactive) | > 100 µM (inactive) | > 100 µM (inactive) | > 100 µM (inactive) | > 100 µM (inactive) | > 100 µM (inactive) | > 100 µM (inactive) | > 100 µM (inactive) | > 100 µM (inactive) | > 100 µM (inactive) | > 100 µM (inactive) |
| CCOC(=O)NC(Nc1ccc(C(=O)O)cc1)(C(F)(F)F)C(F)(F)F | > 100 µM (inactive) | > 100 µM (inactive) | > 100 µM (inactive) | 60.8 µM (inactive) | > 100 µM (inactive) | > 100 µM (inactive) | > 100 µM (inactive) | > 100 µM (inactive) | > 100 µM (inactive) | > 100 µM (inactive) | > 100 µM (inactive) | > 100 µM (inactive) | > 100 µM (inactive) | > 100 µM (inactive) | > 100 µM (inactive) | > 100 µM (inactive) | > 100 µM (inactive) | > 100 µM (inactive) | > 100 µM (inactive) | > 100 µM (inactive) |
| C=CC[C@@]1([C@H](C=C)COCc2ccc(OC)cc2)CC[C@]2(C)OC(C)(C)[C@@H](c3ccccc3)N2C1=S | > 100 µM (inactive) | 73.5 µM (inactive) | 34.8 µM (inactive) | 86.7 µM (inactive) | 62.1 µM (inactive) |  | 35.9 µM (inactive) | 86.5 µM (inactive) | 40.4 µM (inactive) | 37.6 µM (inactive) | 36.9 µM (inactive) | 33.5 µM (inactive) | 35.2 µM (inactive) | 23.5 µM (inactive) | 37.3 µM (inactive) | 44.4 µM (inactive) | 95.3 µM (inactive) | 53.5 µM (inactive) | 19.1 µM (inactive) | 53 µM (inactive) |
| Cc1c2cnccc2c(C)c2c1[nH]c1ccc(O)cc12 |  | 0.31 µM (active) | 2.73 µM (inactive) | 1.53 µM (inactive) | 1.12 µM (inactive) | 1.85 µM (inactive) | 0.796 µM (active) | 6.58 µM (inactive) | 1.57 µM (inactive) | 1.35 µM (inactive) | 0.962 µM (active) | 1.59 µM (inactive) | 3.21 µM (inactive) | 6.25 µM (inactive) | 5.92 µM (inactive) | 0.458 µM (active) | 1.07 µM (active) | 1.01 µM (active) | 2.68 µM (inactive) | 0.989 µM (active) |
| Nc1nc(SC/C=C/c2ccccc2)c2[nH]cnc2n1 | 46.8 µM (inactive) | 45.7 µM (inactive) | > 100 µM (inactive) | 51.5 µM (inactive) | > 100 µM (inactive) | 22.2 µM (inactive) | > 100 µM (inactive) | > 100 µM (inactive) | > 100 µM (inactive) | > 100 µM (inactive) | > 100 µM (inactive) | 91.4 µM (inactive) | > 100 µM (inactive) | 91 µM (inactive) | > 100 µM (inactive) | 72.1 µM (inactive) | > 100 µM (inactive) | 74.8 µM (inactive) | > 100 µM (inactive) | > 100 µM (inactive) |
| NC(=O)c1c(NC=O)ncn1C1OCC(O)C(O)C1O (stereo not drawn) | > 100 µM (inactive) | > 100 µM (inactive) | > 100 µM (inactive) | > 100 µM (inactive) | > 100 µM (inactive) | > 100 µM (inactive) | > 100 µM (inactive) | > 100 µM (inactive) | > 100 µM (inactive) | > 100 µM (inactive) | > 100 µM (inactive) | > 100 µM (inactive) | > 100 µM (inactive) | > 100 µM (inactive) | > 100 µM (inactive) | > 100 µM (inactive) | > 100 µM (inactive) | > 100 µM (inactive) | > 100 µM (inactive) | > 100 µM (inactive) |
